Results from publication PMC10961089, “Epidermal growth factor receptor inhibition potentiates chemotherapeutics‐mediated sensitization of metastatic breast cancer stem cells” (Cancer Reports, 2024).
Read-outs that look alike come from different tables or passages of the source.

What was measured:
MDA‐MB‐231 [1] = test: MTT cytotoxicity assay in MDA-MB-231; type: cell-based, human; conditions: for IC50: 48 h, read-out: IC50 (μM) in MDA‐MB‐231 (mean ± SD)
Experimental: (§1) TNBC cell lines (ER^−, PR^−, HER2^−)—MDA‐MB‐231 (ATCC HTB‐26) and MDA‐MB‐468 (ATCC HTB‐132) were procured from ATCC and cultured in Roswell Park Memorial Institute Media (RPMI‐1640) and Dulbecco's Modified Eagle's Medium (DMEM), respectively, supplemented with 10% FBS and 1% Penicillin–Streptomycin solution. Cells were maintained at 5% CO2 at 37°C in a humid atmosphere.[6], [26] The control cell line, Human Embryonic Kidney—HEK‐293 (ATCC CRL‐3216) was also obtained from ATCC and cultured in DMEM.[5], [25]
(§2) To evaluate the cytotoxicity profile of the potential EGFR inhibitors (compounds) against TNBC cell lines—MDA‐MB‐231, MDA‐MB‐468, and control cell line HEK293, cells were seeded at a cell density of 5 × 10^3 cells/well in complete medium onto 96‐well plates. Here, the non‐tumoral human embryonic kidney (HEK293) epithelial cells have been utilized as a control cell line to compare the IC50 values of the compounds between cancerous and non‐cancerous cell lines with a big therapeutic window. The use of HEK293 cells as compared to other non‐cancerous cell lines are easy to maintain in culture and the results obtained from HEK293 are highly reproducible and consistent.[27] Briefly, the cells were incubated at 37°C for 12 h to attain morphology. After 12 h, cells were serum starved by replacing the complete media with media containing 2% FBS to synchronize the cells. Post‐12 h of synchronization, cells were treated with an increasing concentration (0.1, 1, 10, 100 μM) of all the compounds (1a, 1b, 1c, 1d, 1e, 1f, 1g, 1h, 1i, 1j, 1k). Separately, TNBC cells were treated with increasing concentration (0.01, 0.1, 1 μM) of Doxorubicin (Sigma‐Aldrich, St Louis, MO, USA) in presence of the selected compounds (1c, 1e, 1g, 1h, 1j, and 1k) at 5 μM concentration or combination of selected compounds (1c, 1e, 1g, 1h, 1j, and 1k) at increasing concentration (1, 2.5, 5, 10 μM) in presence of Doxorubicin (0.01 μM) for 48 h. In addition, the CD24^+‐breast cancer cells and CD24^−/CD44^+‐breast CSC populations, being sorted by Magnetic Activated Cell Sorting (MACS) from MDA‐MB‐231 cells as described previously,[6] were also treated with increasing concentrations of Doxorubicin (0.01–1 μM), in the presence or absence of 1e (10–30 μM), or PD153035 (10 μM) (Sigma‐Aldrich, St Louis, MO, USA). MTT assay was performed to evaluate the cytotoxicity of these compounds against the TNBC cell lines, and the sorted populations as described previously.[6] All the experiments were performed thrice and the IC50 values of the compounds and Doxorubicin were calculated using GraphPad Prism software version 9 (San Diego, CA, USA). Similarly, the percent inhibition of the sorted cell populations by chemotherapeutic drug, doxorubicin in the absence/presence of potent compound 1e or standard EGFR inhibitor, PD153035 was evaluated utilizing GraphPad Prism Version 9 (San Diego, CA, USA).

[2] = tested on: CD24^−/CD44^+‐breast CSCs xenotransplanted tumors; test: Preclinical orthotopic xenograft murine tumor model (tumor size, weight, H&E histology); type: in vivo, C57BL/6 mice; conditions: doxorubicin high dose 10 mg/kg intratumoral vs untreated breast CSCs transplanted group
Experimental: Animal studies have been carried out with the prior approval of the Institutional Animal Ethics Committee (IICT/IAEC/025/2023). C57BL/6 female mice of age 6–8 weeks (N = 35) were initially immunosuppressed with cyclophosphamide (50 mg/kg of body weight, i.p) on alternate days for 2 weeks. For generating a preclinical orthotopic xenograft tumor model, 2 × 10^6 GFP expressing sorted stable CD24^+‐breast cancer cells and CD24^−/CD44^+‐breast CSCs were orthotopically xeno‐transplanted subcutaneously at the fourth mammary fat pad of immune‐suppressed mice (n = 5/group). Subsequently, intratumoral administration of Doxorubicin at a low dose (2.5 mg/kg of body weight), high dose (10 mg/kg of body weight), and/or combinatorial treatment of the potent EGFR inhibitor, compound 1e (50 mg/kg of body weight) or the commercial EGFR inhibitor, PD153035 (50 mg/kg of body weight) with a low dose of doxorubicin was performed to the palpable tumors of breast CSCs at day‐3 post‐transplantation.
Euthanization of mice was performed on day 14 post‐transplantation and tumor tissues were collected for histological and immunohistochemical analysis. Histological differences in tumor tissues were evaluated using hematoxylin and eosin staining (H&E).[28], [30]

MDA‐MB‐468 [3] = test: MTT cytotoxicity assay in MDA-MB-468; type: cell-based, human; conditions: for IC50: 48 h, read-out: IC50 (μM) in MDA‐MB‐468 (mean ± SD); for decrease in the IC50 of Doxorubicin in the presence of the compound: MDA-MB-468, versus Doxorubicin alone
Experimental: as §1, §2

[4] = tested on: Bax and Cytochrome‐C in MDA‐MB‐231 cells; test: Gene expression of apoptotic genes, semi-quantitative RT-PCR; type: cell-based, human; conditions: MDA-MB-231, doxorubicin + compound 5 μM, 24 h
Experimental: Briefly, the cells were incubated at 37°C with serum starvation followed by culturing as described above. […] Briefly, the template RNA (1 μg) was utilized for cDNA synthesis using a First‐strand cDNA synthesis kit (Thermo Scientific, USA) according to the manufacturer's protocol. Thermal cycler (Mastercycler® nexus, Eppendorf) was used for the amplification of the expression of apoptotic genes—Bax, Bcl2, Cytochrome‐C, and target gene EGFR with the help of Dream Taq DNA Polymerase PCR Master Mix (Thermo Scientific, USA) along with human gene‐specific forward and reverse primer sequences of the apoptotic genes and EGFR (Table ST1). The expression of the target genes was normalized to the Eukaryotic 18S rRNA.

HEK‐293 = test: MTT cytotoxicity assay in control cell line HEK-293; type: cell-based, human; conditions: non-tumoral control cell line, read-out: IC50 (μM) in HEK‐293 (mean ± SD)
Experimental: as §1, §2

MDA‐MB‐468 [5] = test: Cell migration (chemotaxis), Boyden-Chamber assay; type: cell-based, human; conditions: Doxorubicin 0.01 μM + compound 5 μM (PD153035 10 μM) vs 10% FBS and Doxorubicin alone
Experimental: (§3) TNBC cell lines—MDA‐MB‐231, MDA‐MB‐468, and the sorted CD24^+‐breast cancer cells, and CD24^−/CD44^+‐breast CSC populations from MDA‐MB‐231 [6] were seeded at a density of 1 × 10^6 cells/well to evaluate their migratory potential by Boyden‐Chamber assay. […] At the end of the treatment period, the cells were plated at a density of 5 × 10^3 cells/well in the upper chamber of the Boyden chamber assembly and 10% FBS in the lower chamber was used as a chemoattractant. Separately, the cells in the upper chamber were treated with Doxorubicin (0.01–0.1 μM) alone or with the potential EGFR inhibitors (compounds—1c, 1e, 1g, 1h, 1j, and 1k (5 μM) based on their low IC50 values) or a commercial EGFR inhibitor, PD153035 (10 μM) and incubated for 4 h followed by fixation and staining as described previously.[28], [29]

MDA‐MB‐231 [6] = test: Cell migration (chemotaxis), Boyden-Chamber assay; type: cell-based, human; conditions: Doxorubicin 0.01 μM + compound 5 μM (PD153035 10 μM) vs 10% FBS and Doxorubicin alone
Experimental: as §3

With COc1cccc2c1C(=O)c1c(O)c3c(c(O)c1C2=O)C[C@@](O)(C(=O)CO)C[C@@H]3O[C@H]1C[C@H](N)[C@H](O)[C@H](C)O1 [Doxorubicin, reference compound] the IC50 (MDA‐MB‐231 [1]; Homo sapiens, MDA-MB-231, 48 h, IC50 of doxorubicin alone or in presence of compound at 5 μM) was 0.1 µM, the inhibition at 0.01 µM (MDA‐MB‐231 [1]; Homo sapiens, MDA-MB-231, Doxorubicin 0.01 µM alone, read-out: Percent inhibition (%) in MDA-MB-231 (Mean ± SEM)) was 21.1 ± 0.701% and the IC50 (MDA‐MB‐231 [1]; IC50 of doxorubicin alone or in presence of compound at 5 μM) was 0.11 ± 0.01 µM. For the same molecule, the “tumor size and weight” value [2] was “significantly lower”, the inhibition at 0.01 µM (MDA‐MB‐468 [3]; Homo sapiens, MDA-MB-468, Doxorubicin 0.01 µM alone, read-out: Percent inhibition (%) in MDA-MB-468 (Mean ± SEM)) was 19.1 ± 1.08% and the IC50 (MDA‐MB‐468 [3]; Homo sapiens, MDA-MB-468, IC50 of doxorubicin alone or in presence of compound at 5 μM) was 0.4 ± 0.008 µM.
c1ccc2c(C(c3ccc(C(c4c[nH]c5ccccc45)c4c[nH]c5ccccc45)cc3)c3c[nH]c4ccccc34)c[nH]c2c1 [1k, 1,4‐bis(di(1H‐indol‐3‐yl)methyl)benzene] was tested, and the “expression of pro‐apoptotic genes Bax and Cytochrome‐C” value (“expression” for short) [4] was “marked increase”, the IC50 (MDA‐MB‐231 [1]; Homo sapiens, MDA-MB-231, 48 h, compound alone, MTT) was 14.7 ± 1.36 µM and the IC50 (HEK‐293; Homo sapiens, HEK293, compound alone) was 235 ± 12.5 µM. The IC50 (MDA‐MB‐468 [3]; Homo sapiens, MDA-MB-468, compound alone, MTT) was 20.4 ± 2.41 µM and the “decrease in the IC50 of Doxorubicin in the presence of the compound” value (from here on “decrease in the IC50 of Doxorubicin”) (MDA‐MB‐468 [3]) was 10 fold.
Molecule c1ccc(C(c2c[nH]c3ccccc23)c2c[nH]c3ccccc23)nc1 [1d] has an IC50 (MDA‐MB‐231 [1]; compound alone, MTT) of 44.4 ± 2.11 µM, an IC50 (HEK‐293; compound alone) of 219 ± 11.6 µM and an IC50 (MDA‐MB‐468 [3]; compound alone, MTT) of 47.6 ± 5.99 µM.
In the case of Oc1ccc(C(c2c[nH]c3ccccc23)c2c[nH]c3ccccc23)cc1 [1c], the “expression” value [4] is reported as “marked increase”, the migratory potential (MDA‐MB‐468 [5]) is reported as “significant decrease” and the migratory potential (MDA‐MB‐231 [6]) is reported as “significant decrease”. The IC50 (MDA‐MB‐231 [1]; compound alone, MTT) was 30.5 ± 2.93 µM, the IC50 (HEK‐293; compound alone) was 127 ± 16.8 µM and the “decrease in the IC50 of Doxorubicin” value (MDA‐MB‐468 [3]) was 10 fold. The IC50 (MDA‐MB‐468 [3]; compound alone, MTT) was 25 ± 2.41 µM.
With COc1cc(C(c2c[nH]c3ccccc23)c2c[nH]c3ccccc23)ccc1O [1j] the “expression” value [4] was “marked increase”, the IC50 (MDA‐MB‐231 [1]; compound alone, MTT) was 114 ± 1.25 µM and the IC50 (HEK‐293; compound alone) was 327 ± 20.7 µM. For the same molecule, the “decrease in the IC50 of Doxorubicin” value (MDA‐MB‐468 [3]) was 10 fold and the IC50 (MDA‐MB‐468 [3]; compound alone, MTT) was 68.4 ± 5.51 µM.
In the case of CN(C)c1ccc(C(c2c[nH]c3ccccc23)c2c[nH]c3ccccc23)cc1 [1f], the IC50 (MDA‐MB‐231 [1]; compound alone, MTT) is reported as 73 ± 1.13 µM, the IC50 (HEK‐293; compound alone) is reported as no less than 1000 µM and the IC50 (MDA‐MB‐468 [3]; compound alone, MTT) is reported as 130 ± 7.76 µM.
In the case of c1ccc2c(C(c3c[nH]c4ccccc34)C(c3c[nH]c4ccccc34)c3c[nH]c4ccccc34)c[nH]c2c1 [1g], the “expression” value [4] is reported as “marked increase”, the migratory potential (MDA‐MB‐468 [5]) is reported as “significant decrease” and the migratory potential (MDA‐MB‐231 [6]) is reported as “significant decrease”. The IC50 (MDA‐MB‐231 [1]; compound alone, MTT) was no less than 1000 µM, the IC50 (HEK‐293; compound alone) was no less than 1000 µM and the “decrease in the IC50 of Doxorubicin” value (MDA‐MB‐468 [3]) was 10 fold. For the same molecule, the IC50 (MDA‐MB‐468 [3]; compound alone, MTT) was 29.6 ± 6.04 µM.
c1ccc2c(C(c3c[nH]c4ccccc34)c3c[nH]c4ccccc34)c[nH]c2c1 [1b] was tested, and the IC50 (MDA‐MB‐231 [1]; compound alone, MTT) was 22.1 ± 1.96 µM, the IC50 (HEK‐293; compound alone) was 231 ± 15.9 µM and the IC50 (MDA‐MB‐468 [3]; compound alone, MTT) was 90.8 ± 7.87 µM.
